Literature values in patent publication US7612202B2, “Process for preparing temozolomide” (Chemagis, Ltd., priority 2005, dated 2009).
“Also recorded” adds a separate entry of the source.

Columns and labels:
[1] = administered Temozolomide dose

percentage of administered dose metabolized to TMA [1]: about 2%
stability at acidic pH (aqueous buffers, pH<5): stable
in vitro half-life (phosphate buffer at 37° C. and pH 7.4): 1.9 h
Compound: Cn1nnc2c(C(N)=O)ncn2c1=O [Temozolomide, 8-carbamoyl-3-methyl-imidazo[5,1-d]-1,2,3,5-tetrazin-4(3H)-one]
stability at pH>7 (aqueous buffers, pH>7): labile; also recorded: rapidly decomposes to MTIC
